Target: BKα/γ1 channels (Homo sapiens, UniProt Q12791)
Test: Whole-cell recordings from HEK-293T cells overexpressing BKα/γ1 channels
Assay type: cell-based

Chain of BKα/γ1 channels (Q12791 whole entry): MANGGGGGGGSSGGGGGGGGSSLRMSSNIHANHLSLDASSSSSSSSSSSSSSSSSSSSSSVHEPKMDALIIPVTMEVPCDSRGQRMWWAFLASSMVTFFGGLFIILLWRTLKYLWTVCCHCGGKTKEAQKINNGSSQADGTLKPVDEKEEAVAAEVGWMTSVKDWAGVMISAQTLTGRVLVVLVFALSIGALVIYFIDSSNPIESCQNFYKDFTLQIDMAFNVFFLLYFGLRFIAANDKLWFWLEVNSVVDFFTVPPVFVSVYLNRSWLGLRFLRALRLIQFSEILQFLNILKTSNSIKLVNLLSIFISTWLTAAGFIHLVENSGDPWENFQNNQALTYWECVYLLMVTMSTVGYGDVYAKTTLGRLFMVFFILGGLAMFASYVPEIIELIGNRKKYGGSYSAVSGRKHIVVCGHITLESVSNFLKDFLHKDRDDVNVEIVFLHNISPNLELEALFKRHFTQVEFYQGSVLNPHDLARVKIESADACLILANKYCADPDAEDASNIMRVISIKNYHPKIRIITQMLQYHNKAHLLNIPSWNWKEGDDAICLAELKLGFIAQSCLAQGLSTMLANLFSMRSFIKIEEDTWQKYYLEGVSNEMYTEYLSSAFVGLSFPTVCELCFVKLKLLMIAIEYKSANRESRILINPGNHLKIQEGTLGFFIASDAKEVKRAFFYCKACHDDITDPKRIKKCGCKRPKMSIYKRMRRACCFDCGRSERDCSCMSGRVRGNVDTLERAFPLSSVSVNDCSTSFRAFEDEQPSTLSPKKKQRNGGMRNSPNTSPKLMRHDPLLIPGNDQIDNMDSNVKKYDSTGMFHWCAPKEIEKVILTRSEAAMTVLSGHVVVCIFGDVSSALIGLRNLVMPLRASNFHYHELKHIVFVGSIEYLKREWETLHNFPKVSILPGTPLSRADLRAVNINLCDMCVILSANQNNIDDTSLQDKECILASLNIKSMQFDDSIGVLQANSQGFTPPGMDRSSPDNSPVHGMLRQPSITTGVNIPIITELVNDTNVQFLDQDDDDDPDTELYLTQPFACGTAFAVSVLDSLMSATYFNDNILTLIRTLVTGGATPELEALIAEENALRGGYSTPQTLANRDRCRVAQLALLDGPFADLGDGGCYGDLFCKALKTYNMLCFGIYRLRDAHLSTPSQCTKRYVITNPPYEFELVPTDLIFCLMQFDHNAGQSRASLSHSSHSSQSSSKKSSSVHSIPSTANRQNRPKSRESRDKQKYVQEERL
Chain of BKα/γ1 channels (Q2I0M4 27-334 partner): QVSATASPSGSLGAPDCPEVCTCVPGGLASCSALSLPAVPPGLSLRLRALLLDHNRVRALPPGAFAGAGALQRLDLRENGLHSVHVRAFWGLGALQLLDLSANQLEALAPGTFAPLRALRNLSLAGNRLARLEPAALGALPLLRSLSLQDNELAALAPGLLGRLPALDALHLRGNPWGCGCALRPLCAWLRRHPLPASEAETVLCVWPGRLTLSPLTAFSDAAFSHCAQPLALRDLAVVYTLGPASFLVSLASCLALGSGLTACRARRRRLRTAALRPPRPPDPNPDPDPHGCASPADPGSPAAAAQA

fractional current not blocked (1 mM extracellular TEA): 0.082 ± 0.0007
time constant to reach equilibrium (bath application of 1 mM TEA): 8.4 ± 1 s
τ of exponential fit (c) (representative experiment Fig. 5 A, back to 0 LOP/0 TEA at t = 17 min): 13.2 s
τ of exponential fit (b) (representative experiment Fig. 5 A, switch to 1 mM TEA at t = 15 min): 7.3 s
SMILES: CC[N+](CC)(CC)CC [TEA]
